Experimental data taken from ChEMBL document CHEMBL4420062, “Tfpi inhibitors and methods of use” (2013).
Where a SMILES comes first, the peptide text is derived from it. [ ]: non-standard residue; d: D form. Tle = CC(C)(C)[C@H](N)C(=O)O; Aib = CC(C)(N)C(=O)O

How the values were obtained:
[1] = Stability in mouse plasma assessed as parent compound remaining after 24 hrs; assay type: ADME, cell-free; conditions: read-out: Stability
[2] = Stability in human plasma assessed as parent compound remaining after 24 hrs; assay type: ADME, cell-free; conditions: read-out: Stability

| Compound | remaining at 24 h [1] [%] | remaining at 24 h [2] [%] |
| --- | --- | --- |
| CC(=O)N[C@@H](Cc1ccccc1)C(=O)N[C@@H](CCC(N)=O)C(=O)N[C@@H](CO)C(=O)N[C@@H](CCCCN)C(=O)N1CCC[C@@H]1C(=O)N[C@@H](CC(N)=O)C(=O)N[C@H](C(=O)N[C@@H](Cc1cnc[nH]1)C(=O)N[C@H](C(=O)N[C@@H](CC(=O)O)C(=O)NCC(=O)N[C@@H](Cc1ccc(O)cc1)C(=O)N[C@@H](Cc1csc2ccccc12)C(=O)N[C@@H](CCC(=O)O)C(=O)N[C@@H](CCCNC(=N)N)C(=O)N[C@@H](CC(C)C)C(=O)NC(C)(C)C(=O)N[C@@H](C)C(=O)N[C@@H](CCCCN)C(=O)N[C@@H](CC(C)C)C(N)=O)C(C)C)C(C)C | 6.1 | 46.6 |
| CC(=O)NCSC[C@H](NC(=O)[C@H]1CCCN1C(=O)[C@H](CCCCN)NC(=O)[C@H](CO)NC(=O)[C@H](CCC(N)=O)NC(=O)[C@H](Cc1ccccc1)NC(C)=O)C(=O)N[C@H](C(=O)N[C@@H](Cc1c[nH]cn1)C(=O)N[C@H](C(=O)N[C@@H](CC(=O)O)C(=O)NCC(=O)N[C@@H](Cc1ccc(O)cc1)C(=O)N[C@@H](Cc1ccccc1)C(=O)N[C@@H](CCC(=O)O)C(=O)N[C@@H](CCCNC(=N)N)C(=O)N[C@@H](CC(C)C)C(=O)NC(C)(C)C(=O)N[C@@H](C)C(=O)N[C@@H](CCCCN)C(=O)N[C@@H](CC(C)C)C(N)=O)C(C)(C)C)C(C)C | 36.1 | 81.2 |
| CCCCCCCCCCCCCCCC(=O)NCCCOCCOCCOCCCNC(=O)CCNC(=O)CCC(=O)NCCCC[C@H](NC(=O)[C@H](CC(C)C)NC(=O)[C@H](CCCCN)NC(=O)[C@H](C)NC(=O)C(C)(C)NC(=O)[C@H](CC(C)C)NC(=O)[C@H](CCCNC(=N)N)NC(=O)[C@H](CCC(=O)O)NC(=O)[C@H](Cc1ccccc1)NC(=O)[C@H](Cc1ccc(O)cc1)NC(=O)[C@@H](C)NC(=O)[C@H](CC(=O)O)NC(=O)[C@@H](NC(=O)[C@H](Cc1cnc[nH]1)NC(=O)[C@@H](NC(=O)[C@H](CSCNC(C)=O)NC(=O)[C@H]1CCCN1C(=O)[C@H](CCCCN)NC(=O)[C@H](CO)NC(=O)[C@H](CCC(N)=O)NC(=O)[C@H](Cc1ccccc1)NC(=O)CCCCC)C(C)C)C(C)(C)C)C(N)=O | 67.5 | 108 |
| CC(=O)N[C@@H](Cc1ccccc1)C(=O)N[C@@H](CCC(N)=O)C(=O)N[C@@H](CO)C(=O)N[C@@H](CCCCN)C(=O)N1CCC[C@@H]1C(=O)N[C@@H](CC(N)=O)C(=O)N[C@H](C(=O)N[C@@H](Cc1cnc[nH]1)C(=O)N[C@H](C(=O)N1CCC[C@H]1C(=O)N[C@H](CS)C(=O)N[C@@H](Cc1ccc(O)cc1)C(=O)N[C@@H](Cc1csc2ccccc12)C(=O)N[C@@H](CCS)C(=O)N[C@@H](CCCNC(=N)N)C(=O)N[C@@H](CC(C)C)C(=O)NC(C)(C)C(=O)N[C@H](C)C(=O)N[C@@H](CCCCN)C(=O)N[C@@H](CC(C)C)C(N)=O)C(C)C)C(C)C | 28.3 | 77.7 |
| CC(=O)N[C@@H](Cc1ccccc1)C(=O)N[C@@H](CCC(N)=O)C(=O)N[C@@H](CO)C(=O)N[C@@H](CCCCN)C(=O)N1CCC[C@@H]1C(=O)N[C@@H](CC(N)=O)C(=O)N[C@H](C(=O)N[C@@H](Cc1cnc[nH]1)C(=O)N[C@H](C(=O)N[C@@H](CC(=O)O)C(=O)NCC(=O)N[C@@H](Cc1ccc(O)cc1)C(=O)N[C@@H](Cc1ccccc1)C(=O)N[C@@H](CCC(=O)O)C(=O)N[C@@H](CCCNC(=N)N)C(=O)N[C@@H](CC(C)C)C(=O)NC(C)(C)C(=O)N[C@@H](C)C(=O)N[C@@H](CCCCN)C(=O)N[C@@H](CC(C)C)C(N)=O)c1ccccc1)C(C)C | 4.8 | 34.7 |
| CC(=O)N[C@@H](Cc1ccccc1)C(=O)N[C@@H](CCC(N)=O)C(=O)N[C@@H](CO)C(=O)N[C@@H](CCCCN)C(=O)N1CCC[C@@H]1C(=O)N[C@@H](CC(N)=O)C(=O)N[C@H](C(=O)N[C@@H](Cc1cnc[nH]1)C(=O)N[C@H](C(=O)N[C@@H](CC(=O)O)C(=O)N[C@H](C)C(=O)N[C@@H](Cc1ccc(O)cc1)C(=O)N[C@@H](Cc1ccccc1)C(=O)N[C@@H](CCC(=O)O)C(=O)N[C@@H](CCCNC(=N)N)C(=O)N[C@@H](CC(C)C)C(=O)NC(C)(C)C(=O)N[C@@H]1CSSCCNC(=O)[C@H](CC(C)C)NC(=O)[C@H](CCCCN)NC1=O)C(C)(C)C)C(C)C | 34.3 | 12.1 |
| CC(C)C[C@H](NC(=O)[C@H](CCCCN)NC(=O)[C@H](C)NC(=O)C(C)(C)NC(=O)[C@H](CC(C)C)NC(=O)[C@H](CCCNC(=N)N)NC(=O)[C@H](CCC(=O)O)NC(=O)[C@H](Cc1ccccc1)NC(=O)[C@H](Cc1ccc(O)cc1)NC(=O)[C@@H](C)NC(=O)[C@H](CC(=O)O)NC(=O)[C@@H](NC(=O)[C@H](Cc1cnc[nH]1)NC(=O)[C@@H](NC(=O)[C@H](CC(N)=O)NC(=O)[C@H]1CCCN1C(=O)[C@H](CCCCN)NC(=O)[C@H](CO)NC(=O)[C@H](CCC(N)=O)NC(=O)[C@H](Cc1ccccc1)NS(=O)(=O)c1cccc2ccccc12)C(C)C)C(C)(C)C)C(N)=O | 52 | 107 |
| CCCC[C@H](NC(=O)C(C)(C)NC(=O)[C@H](CC(C)C)NC(=O)[C@H](CCCNC(=N)N)NC(=O)[C@H](CCC(=O)O)NC(=O)[C@H](Cc1ccccc1)NC(=O)[C@H](Cc1ccc(O)cc1)NC(=O)CNC(=O)[C@H](CC(=O)O)NC(=O)[C@@H](NC(=O)[C@H](Cc1cnc[nH]1)NC(=O)[C@@H](NC(=O)[C@H](CC(N)=O)NC(=O)[C@H]1CCCN1C(=O)[C@H](CCCCN)NC(=O)[C@H](CO)NC(=O)[C@H](CCC(N)=O)NC(=O)[C@H](Cc1ccccc1)NC(C)=O)C(C)C)C(C)(C)C)C(=O)N[C@@H](CCCCN)C(=O)N[C@@H](CC(C)C)C(N)=O | 17 | 90.1 |
| CC(=O)N[C@@H](Cc1ccccc1)C(=O)N[C@@H](CCC(N)=O)C(=O)N[C@@H](CO)C(=O)N[C@@H](CCCCN)C(=O)N1CCC[C@@H]1C(=O)N[C@@H](CC(N)=O)C(=O)N[C@H](C(=O)N[C@@H](Cc1cnc[nH]1)C(=O)N[C@H](C(=O)N[C@@H](CC(=O)O)C(=O)N[C@H](C)C(=O)N[C@@H](Cc1ccc(O)cc1)C(=O)N[C@@H](Cc1ccccc1)C(=O)N[C@@H](CCC(=O)O)C(=O)N[C@@H](CCCNC(=N)N)C(=O)N[C@@H](CC(C)C)C(=O)NC(C)(C)C(=O)NC(C)(C)C(=O)N[C@@H](CCCCN)C(=O)N[C@@H](CC(C)C)C(N)=O)C(C)(C)C)C(C)C | 85.9 | 99.2 |
| CC(=O)N[C@@H](Cc1ccccc1)C(=O)N[C@@H](CCC(N)=O)C(=O)N[C@@H](CO)C(=O)N[C@@H](CCCCN)C(=O)N1CCC[C@@H]1C(=O)N[C@@H](CC(N)=O)C(=O)N[C@H](C(=O)N[C@@H](Cc1cnc[nH]1)C(=O)N[C@H](C(=O)N[C@@H](CC(=O)O)C(=O)NCC(=O)N[C@@H](Cc1ccc(O)cc1)C(=O)N[C@@H](Cc1ccccc1)C(=O)N[C@@H](CCC(=O)O)C(=O)N[C@@H](CCCNC(=N)N)C(=O)N[C@@H](CC(C)C)C(=O)NC(C)(C)C(=O)N[C@@H](C)C(=O)N[C@@H](CCCCN)C(=O)N[C@@H](CC(C)C)C(N)=O)C(C)(C)C)C(C)C (Ac-FQSK[dP]NVH[Tle]DGYFERL[Aib]AKL-NH2) | 42.6 | 81.9 |
| CC(=O)N[C@@H](Cc1ccccc1)C(=O)N[C@@H](CCC(N)=O)C(=O)N[C@@H](CO)C(=O)N[C@@H](CCCCN)C(=O)N1CCC[C@@H]1C(=O)N[C@@H](CC(N)=O)C(=O)N[C@H](C(=O)N[C@@H](Cc1cnc[nH]1)C(=O)N[C@H](C(=O)N1CCC[C@H]1C(=O)NCC(=O)N[C@@H](Cc1ccc(O)cc1)C(=O)N[C@@H](Cc1ccccc1)C(=O)NC(C)(C)C(=O)N[C@@H](CCCNC(=N)N)C(=O)N[C@@H](CC(C)C)C(=O)NC(C)(C)C(=O)N[C@@H](C)C(=O)N[C@@H](CCCCN)C(=O)N[C@@H](CC(C)C)C(N)=O)C(C)C)C(C)C | 31.2 | 99.5 |
| CC(=O)N[C@@H](Cc1ccccc1)C(=O)N[C@@H](CCC(N)=O)C(=O)N[C@@H](CO)C(=O)N[C@@H](CCCCN)C(=O)N1CCC[C@@H]1C(=O)N[C@@H](CC(N)=O)C(=O)N[C@H](C(=O)N[C@@H](Cc1cnc[nH]1)C(=O)N[C@H](C(=O)N[C@@H](CC(=O)O)C(=O)N[C@@H]1CSSCC[C@@H](C(=O)N[C@@H](CCCNC(=N)N)C(=O)N[C@@H](CC(C)C)C(=O)N[C@@H](C)C(=O)N[C@@H](C)C(=O)N[C@@H](CCCCN)C(=O)N[C@@H](CC(C)C)C(N)=O)NC(=O)[C@H](Cc2ccccc2)NC(=O)[C@H](Cc2ccc(O)cc2)NC1=O)C(C)(C)C)C(C)C | 11.1 | 61.5 |
| CC(=O)N[C@@H](Cc1ccccc1)C(=O)N[C@@H](CCC(N)=O)C(=O)N[C@@H](CO)C(=O)N[C@@H](CCCCN)C(=O)N1CCC[C@@H]1C(=O)N[C@@H](CC(N)=O)C(=O)N[C@H](C(=O)N[C@@H](Cc1cnc[nH]1)C(=O)N[C@H](C(=O)N[C@@H](CC(=O)O)C(=O)N[C@H](C)C(=O)N[C@@H](Cc1ccc(O)cc1)C(=O)N[C@@H](Cc1ccccc1)C(=O)N[C@@H](CCC(=O)O)C(=O)N[C@@H](CCCNC(=N)N)C(=O)N[C@@H](CC(C)C)C(=O)NC(C)(C)C(=O)N[C@@H](C)C(=O)N[C@@H](CCCCN)C(=O)N[C@@H](CC(C)C)C(N)=O)C(C)(C)C)C(C)C | 47.2 | 100 |
| CC(=O)NCSC[C@H](NC(=O)[C@H]1CCCN1C(=O)[C@H](CCCCN)NC(=O)[C@H](CO)NC(=O)[C@H](CCC(N)=O)NC(=O)[C@H](Cc1ccccc1)NC(C)=O)C(=O)N[C@H](C(=O)N[C@@H](Cc1cnc[nH]1)C(=O)N[C@H](C(=O)N[C@@H](CC(=O)O)C(=O)N[C@H](C)C(=O)N[C@@H](Cc1ccc(O)cc1)C(=O)N[C@@H](Cc1ccccc1)C(=O)N[C@@H](CCC(=O)O)C(=O)N[C@@H](CCCNC(=N)N)C(=O)N[C@@H](CC(C)C)C(=O)NC(C)(C)C(=O)N[C@@H](C)C(=O)N[C@@H](CCCCN)C(=O)N[C@@H](CC(C)C)C(N)=O)C(C)(C)C)C(C)C | 43 | 86.2 |
| CC(=O)N[C@@H](Cc1csc2ccccc12)C(=O)N[C@@H](CCC(N)=O)C(=O)N[C@@H](CO)C(=O)N[C@@H](CCCCN)C(=O)N1CCC[C@@H]1C(=O)N[C@@H](CC(N)=O)C(=O)N[C@H](C(=O)N[C@@H](Cc1cnc[nH]1)C(=O)N[C@H](C(=O)N[C@@H](CC(=O)O)C(=O)NCC(=O)N[C@@H](Cc1ccc(O)cc1)C(=O)N[C@@H](Cc1ccccc1)C(=O)N[C@@H](CCC(=O)O)C(=O)N[C@@H](CCCNC(=N)N)C(=O)N[C@@H](CC(C)C)C(=O)NC(C)(C)C(=O)N[C@@H](C)C(=O)N[C@@H](CCCCN)C(=O)N[C@@H](CC(C)C)C(N)=O)C(C)C)C(C)C | 0 | 18.6 |
